# System: Peritoneal rat mastocytes
# Test: mastocyte degranulation test in vitro (inhibition of compound 48/80-induced histamine granule release)
# Assay type: cell-based
# Settings: rat peritoneal mastocytes incubated with compound 48/80; dose that inhibits histamine granule release by 50%
# Method: The compounds of the invention and fenspiride, a prior art product taken as reference substance, were subjected to the mastocyte degranulation test:
# Peritoneal rat mastocytes are incubated in vitro in the presence of compound 48/80, which causes histamine granules to be released. The protective effect of the tested compounds is expressed in IC50, that is to say the (molar) dose that inhibits this release by 50%.
SMILES,IC50,Mastocyte degranulation in vitro - IC50
"CCCc1c(OCCCN2CCC3(CC2)CNC(=O)O3)ccc(C(C)=O)c1O [Example 1, 8-[3-(2-propyl-3-hydroxy-4-acetylphenoxy)propyl]-1-oxa-2-oxo-3,8-diaza-spiro[4.5]decane]",240 µM,
"CCCc1c(OCCN2CCC3(CC2)CNC(=O)O3)ccc(C(C)=O)c1O [Example 1a, 8-[2-(2-propyl-3-hydroxy-4-acetylphenoxy)ethyl]-1-oxa-2-oxo-3,8-diaza-spiro[4.5]decane]",200 µM,
"CCCc1c(OCCCCN2CCC3(CC2)CNC(=O)O3)ccc(C(C)=O)c1O [Example 1b, 8-[4-(2-propyl-3-hydroxy-4-acetylphenoxy)butyl]-1-oxa-2-oxo-3,8-diaza-spiro[4.5]decane]",200 µM,
"CCCc1c(OCC(O)CN2CCC3(CC2)CNC(=O)O3)ccc(C(C)=O)c1O (centres unmarked) [Example 1c, 8-[3-(2-propyl-3-hydroxy-4-acetylphenoxy)-2-hydroxypropyl]-1-oxa-2-oxo-3,8-diaza-spiro[4.5]decane]",1000 µM,
"CCCc1c(OCCCCCN2CCC3(CC2)CNC(=O)O3)ccc(C(C)=O)c1O [Example 1d, 8-[5-(2-propyl-3-hydroxy-4-acetylphenoxy)pentyl]-1-oxa-2-oxo-3,8-diaza-spiro[4.5]decane]",110 µM,
"CCCc1c(OCCCCCCN2CCC3(CC2)CNC(=O)O3)ccc(C(C)=O)c1O [Example 1e, 8-[6-(2-propyl-3-hydroxy-4-acetylphenoxy)hexyl]-1-oxa-2-oxo-3,8-diaza-spiro[4.5]decane]",92 µM,
"CCCc1c(OCCN2CCC3(CC2)OC(=O)NC3C)ccc(C(C)=O)c1O (centres unmarked) [Example 1f, 8-[2-(2-propyl-3-hydroxy-4-acetylphenoxy)ethyl]-1-oxa-2-oxo-3,8-diaza-4-methyl-spiro[4.5]decane]",100 µM,
"C=CCc1c(OCCCN2CCC3(CC2)CNC(=O)O3)ccc(C(C)=O)c1O [Example 1h, 8-[3-(2-allyl-3-hydroxy-4-acetylphenoxy)propyl]-1-oxa-2-oxo-3,8-diaza-spiro[4.5]decane]",250 µM,
"CCCc1c(OCCCN2CCC3(CC2)CNC(=O)O3)ccc2c(=O)cc(C(=O)OCC)oc12 [Example 1i, 8-[3-(2-ethoxycarbonyl-8-propyl-7-chrom-4-onyloxy)propyl]-1-oxa-2-oxo-3,8-diaza-spiro[4.5]decane]",100 µM,
CCCc1c(OCCCN2CCC3(CC2)CNC(=O)O3)ccc2c1OCCC2=O [Example 1j],100 µM,
"CCc1c(OCCCN2CCC3(CC2)CNC(=O)O3)ccc(C(C)=O)c1O [Example 1k, 8-[3-(2-ethyl-3-hydroxy-4-acetylphenoxy)propyl]-1-oxa-2-oxo-3,8-diaza-spiro[4.5]decane]",830 µM,
"CC(=O)c1ccc(OCCCN2CCC3(CC2)CNC(=O)O3)c(CC(C)C)c1O [Example 1l, 8-[3-(2-isobutyl-3-hydroxy-4-acetylphenoxy)propyl]-1-oxa-2-oxo-3,8-diaza-spiro[4.5]decane]",116 µM,
"CCCc1c(OCCCN2CCC3(CC2)OC(=O)NC3C)ccc(C(C)=O)c1O (centres unmarked) [Example 2, 8-[3-(2-propyl-3-hydroxy-4-acetylphenoxy)propyl]-1-oxa-2-oxo-3,8-diaza-4-methyl-spiro[4.5]decane]",200 µM,
"CCCc1c(OCCCN2CCC3(CC2)CNC(=O)O3)ccc2c(=O)cc(C(=O)O)oc12 [Example 3, 8-[3-(2-carboxy-8-propyl-7-chrom-4-onyloxy)propyl]-1-oxa-2-oxo-3,8-diaza-spiro[4.5]decane]",1000 µM,
"CCCc1c(OCCCN2CCC3(CC2)CN(C(C)=O)C(=O)O3)ccc(C(C)=O)c1OC(C)=O [Example 4, 8-[3-(2-propyl-3-acetoxy-4-acetylphenoxy)propyl]-1-oxa-2-oxo-3,8-diaza-3-acetyl-spiro[4.5]decane]",720 µM,
"C=CCc1c(OCCCN2CCC3(CC2)CN(C(C)=O)C(=O)O3)ccc(C(C)=O)c1OC(C)=O [Example 4a, 8-[3-(2-allyl-3-acetoxy-4-acetylphenoxy)propyl]-1-oxa-2-oxo-3,8-diaza-3-acetyl-spiro[4.5]decane]",2500 µM,
"CCCc1c(OCCCCCN2CCC3(CC2)CN(C(C)=O)C(=O)O3)ccc(C(C)=O)c1OC(C)=O [Example 4b, 8-[5-(2-propyl-3-acetoxy-4-acetylphenoxy)pentyl]-1-oxa-2-oxo-3,8-diaza-3-acetyl-spiro[4.5]decane]",1000 µM,
"CCc1c(OCCCN2CCC3(CC2)CN(C(C)=O)C(=O)O3)ccc(C(C)=O)c1OC(C)=O [Example 4c, 8-[3-(2-ethyl-3-acetoxy-4-acetylphenoxy)propyl]-1-oxa-2-oxo-3,8-diaza-3-acetyl-spiro[4.5]decane]",> 1000 µM,
"CC(=O)Oc1c(C(C)=O)ccc(OCCCN2CCC3(CC2)CN(C(C)=O)C(=O)O3)c1CC(C)C [Example 4d, 8-[3-(2-isobutyl-3-acetoxy-4-acetylphenoxy)propyl]-1-oxa-2-oxo-3,8-diaza-3-acetyl-spiro[4.5]decane]",730 µM,
"C=CCc1c(OCCCN2CCC3(CC2)CN(C(C)=O)C(=O)O3)ccc(C(C)=O)c1O [Example 5, 8-[3-(2-allyl-3-hydroxy-4-acetylphenoxy)propyl]-1-oxa-2-oxo-3,8-diaza-3-acetyl-spiro[4.5]decane]",750 µM,
"CCCc1c(OCCCN2CCC3(CC2)CNC(=O)O3)ccc(C(C)=O)c1OC(C)=O [Example 6, 8-[3-(2-propyl-3-acetoxy-4-acetylphenoxy)propyl]-1-oxa-2-oxo-3,8-diaza-spiro[4.5]decane]",1200 µM,
"CCCc1c(OCCCCCN2CCC3(CC2)CNC(=O)O3)ccc(C(C)=O)c1OC(C)=O [Example 6a, 8-[5-(2-propyl-3-acetoxy-4-acetylphenoxy)pentyl]-1-oxa-2-oxo-3,8-diaza-spiro[4.5]decane]",2000 µM,
"O=C1NCC2(CCN(CCc3ccccc3)CC2)O1 [fenspiride, reference compound]",,inactive
